Data set [1] can be described thus: Solubility screening of Compound 1 in various solvents/solvent systems. To be noted: read-out: Determined Solubility. Format: physicochemical. The source says: A solubility screening of Compound 1 was effected. […] In general, three potential approaches where covered: i) polar organic co-solvents, ii) solubilization by surfactants and iii) oils which may, in particular, serve as a basis of an emulsion gel. A phosphate buffer of pH 6.5 with low molarity was used as this salt and pH is suitable for application on wounds. It is of note that the resulting pH of the screened systems is about 7.3.

Another data set has as its system C57Bl/6J mice. Kind of data set: Ulcer core perfusion of full thickness excisional cutaneous wounds by LSCI/LASCA. It counts as in vivo. The following applies: single dose 25 μl per wound, almost all times of measurements. The method, then:
Effects of a single dose of Topical Composition A2, Topical Composition A4, and Vehicle Composition A, when administered on the perfusion of the ulcer core of full thickness excisional cutaneous wounds in C57B1/6J mice was investigated. Thus, Topical Compositions A2 and A4 were applied in a dose volume of 25 μl per wound. Each individual mouse had surgery for two wounds located symmetrical to the dorsal midline using 8 mm diameter punch biopsy devices.
Topical Compositions A2 and A4 or Vehicle Composition A were randomly administered to one or the other wound under a blinded protocol. This procedure enabled an intra-individual comparison between Compound 1 and its composition vehicle. Perfusion of the ulcer core as well as of the periulcer region was separately measured by Laser Speckle Contrast Imaging (LSCI)/Laser Speckle Contrast Analysis (LASCA) using a Perimed device. LASCA wound perfusion measurements of digital ulcers in SSc were previously shown to correlate with time to healing (Barsotti S et al Clin Rheumatol. (2020) 39(1):69-75).
In detail, a single application of Topical Compositions A2 and A4 or Vehicle Composition A, each at a volume of 25 μl per wound was randomly administered either to the right or left of two full thickness cutaneous wounds per mouse generated by 8 mm punch biopsies and symmetrically to the dorsal midline, at 24 h after surgery. […]

The target in another data set is PDE5 (Homo sapiens, UniProt O76074). Kind of data set: IC50 of Compound 1 (earlier effected measurements). Format: biochemical.

pIC50: −log10 of the molar value. Where two headings read alike, the source gives them in different places.

By solubility is commonly meant how much of the substance goes into solution per volume. Broadly, the pIC50 is −log10 of the IC50, conventionally taken in molar units. Lower therefore signals a high IC50.

`CCCOc1ccc(S(=O)(=O)N2CCC(CCO[N+](=O)[O-])CC2)cc1-c1nn2c(CCC)c(/C=N/O)c(C)c2c(=O)[nH]1` [Compound 1, 2-[1-(3-{6-[(1E)-(hydroxyimino)methyl]-5-methyl-4-oxo-7-propyl-3H,4H-pyrrolo[2,1-f][1,2,4]triazin-2-yl}-4-propoxybenzenesulfonyl)piperidin-4-yl]ethyl nitrate]: the solubility in data set [1] (1% poloxamer 407 in phosphate buffer, pH 6.5, aqueous with cosolvent or surfactant or cyclodextrin, 1% poloxamer 407 in PB, PB = Phosphate buffer 10 mmol/L pH 6.5) stood at 270 µg/mL; in data set [1] (1% polysorbate 80 in phosphate buffer, pH 6.5, aqueous with cosolvent or surfactant or cyclodextrin, 1% polysorbate 80 in PB, PB = Phosphate buffer 10 mmol/L pH 6.5), 77 µg/mL; in data set [1] (3% polysorbate 80 in phosphate buffer, pH 6.5, aqueous with cosolvent or surfactant or cyclodextrin, 3% polysorbate 80 in PB, PB = Phosphate buffer 10 mmol/L pH 6.5) it was 139 µg/mL; in data set [1] (8% polysorbate 80 in phosphate buffer + 3% benzyl alcohol, pH 6.5, aqueous with cosolvent or surfactant or cyclodextrin, 8% polysorbate 80 in PB + 3% benzyl alcohol, PB = Phosphate buffer 10 mmol/L pH 6.5) it was 56 µg/mL; in data set [1] (8% polysorbate 80 in phosphate buffer + 10% MCT, pH 6.5, aqueous with cosolvent or surfactant or cyclodextrin, 8% polysorbate 80 in PB + 10% MCT, PB = Phosphate buffer 10 mmol/L pH 6.5), 37 µg/mL; in data set [1] (8% polysorbate 80 in phosphate buffer + 10% ethanol, pH 6.5, aqueous with cosolvent or surfactant or cyclodextrin, 8% polysorbate 80 in PB + 10% ethanol, PB = Phosphate buffer 10 mmol/L pH 6.5), 43 µg/mL. The solubility is 63 µg/mL in data set [1] (8% polysorbate 80 in phosphate buffer + 10% poloxamer 407, pH 6.5, aqueous with cosolvent or surfactant or cyclodextrin, 8% polysorbate 80 in PB + 10% poloxamer 407, PB = Phosphate buffer 10 mmol/L pH 6.5); 67 µg/mL in data set [1] (8% polysorbate 80 in phosphate buffer, pH 6.5, aqueous with cosolvent or surfactant or cyclodextrin, 8% polysorbate 80 in PB, PB = Phosphate buffer 10 mmol/L pH 6.5); 23.2 µg/mL in data set [1] (10% poloxamer 407 in phosphate buffer, pH 6.5, aqueous with cosolvent or surfactant or cyclodextrin, 10% poloxamer 407 in PB, PB = Phosphate buffer 10 mmol/L pH 6.5); 1 µg/mL in data set [1] (PEG 400/phosphate buffer (30:70, vol:vol), pH 6.5, aqueous with cosolvent or surfactant or cyclodextrin, PEG 400/PB (30:70, vol:vol), PB = Phosphate buffer 10 mmol/L pH 6.5); 110 µg/mL in data set [1] (PEG 400/phosphate buffer (70:30, vol:vol), pH 6.5, aqueous with cosolvent or surfactant or cyclodextrin, PEG 400/PB (70:30, vol:vol), PB = Phosphate buffer 10 mmol/L pH 6.5); 93 µg/mL in data set [1] (isopropyl myristate (IPM), oil or lipid, Isopropyl myristate (IPM)). Moreover, the solubility in data set [1] (medium chain triglycerides (MCT), oil or lipid, Medium chain triglycerides (MCT)) came to 282 µg/mL; in data set [1] (octyldodecanol (Kollicream OD), oil or lipid, Octyldodecanol (Kollicream OD)), 28 µg/mL; in data set [1] (pH 6.5, aqueous with cosolvent or surfactant or cyclodextrin, PEG 400/PB (30:70, vol:vol) + 3% benzyl alcohol, PB = Phosphate buffer 10 mmol/L pH 6.5), 8 µg/mL; in data set [1] (pH 6.5, aqueous with cosolvent or surfactant or cyclodextrin, PEG 400/PB (30:70, vol:vol) + 3% polysorbate 80, PB = Phosphate buffer 10 mmol/L pH 6.5), 20 µg/mL; in data set [1] (pH 6.5, aqueous with cosolvent or surfactant or cyclodextrin, PEG 400/PB (30:70, vol:vol) + 10% poloxamer 407, PB = Phosphate buffer 10 mmol/L pH 6.5) it was 54 µg/mL; in data set [1] (polyethylene glycol PEG 400, organic solvent or mixture, Polyethylene glycol PEG 400), 10500 µg/mL. In the data set on C57Bl/6J mice, the “ulcer core perfusion compared to Vehicle Composition A” value is listed as “increases perfusion of ulcer core”. In addition, the pIC50 against PDE5 was 8.93.

The values above are taken from patent US20250000869A1, “TOPICAL COMPOSITIONS OF 2-PHENYL-3, 4-DIHYDROPYRROLO [2, L-F] [1, 2, 4] TRIAZINONE DERIVATIVES AND USES THEREOF” (TOPADUR PHARMA AG, priority 2021, published 2025).
